Results published in US7141648B2, “Synthesis of cyclosporin analogs” (priority 2001, dated 2006).
Where two headings read alike, the source gives them in different places.

Tests used:
[1] = test system: hearts transplanted from Wistar Furth rats to Lewis rats; test: rat heart transplant model; format: in vivo
Description: If graft dysfunction was noted during the 30-day post-transplantation period, the animal was sacrificed. If the animal survived longer than 30 days post-transplantation, the test and control articles were discontinued and the animal was allowed to continue until graft dysfunction or up to 100 days post-transplantation.

[2] = test system: islets from a CBA/J mouse transplanted into diabetic Balb/c mouse recipients; test: islet cell allotransplantation mouse model; conditions: especially apparent at 25 mg/kg/day
Description: Blood glucose was monitored daily until the time of graft failure, as defined by a glucose level greater than 17 mmol/L on two consecutive days.

[3] = test system: Male DBA/1 Lac J mice immunized with chick type II collagen; test: collagen-induced arthritis model in the mouse; format: in vivo; conditions: for negative erosion scores compared to vehicle treatment group: PIP joint
Experimental: Male DBA/1 Lac J mice, kept under virus antibody free conditions, were immunized subcutaneously at 8 to 10 weeks of age with 100 microgram of chick type II collagen, emulsified in Freund's complete adjuvant. […] Animals assigned to the treatment protocol (12/group) were dosed starting on the day of disease onset (˜Day 28) until sacrifice on Day 38.
Evaluated parameters included mortality, serum creatinine, histology, and outcome assessments, such as clinical scoring (visual), hind paw swelling, histological scoring, erosion scoring, and immunohistochemistry.
Erosion scoring was done in a blinded manner by examining sagittal sections of the proximal interphalangeal (PIP) joint of the middle digit for the presence or absence of erosions (defined as demarcated defects in cartilage or bone filled with inflammatory tissue). This approach allowed for comparisons of the same joint.

[4] = test system: New Zealand White rabbits immunized with ovalbumin; test: antigen-induced arthritis model in the rabbit; format: in vivo
Experimental: New Zealand White rabbits, maintained under specific pathogen free conditions, were immunized with 10 mg of ovalbumin in saline emulsified with Freund's complete adjuvant that was given intramuscularly and subcutaneously into several sites in the nape of the neck. Fourteen days later, all animals started receiving 2 daily intra-articular injections of 5 mg ovalbumin and 65 ng of human recombinant transforming growth factor 2 in saline.
Animals assigned to the treatment protocol (8/group) were dosed starting on the day of disease onset (˜Day 28) until sacrifice on Day 42.
Evaluated parameters included mortality, body weight, serum creatinine, histology, and outcome assessments such as knee joint swelling, synovial fluid counts, gross postmortem analysis, and histology.

rats, dogs, and primates = test: repeated-dose oral toxicity studies; format: in vivo
[5] = for Area under the curve / Cmax: male rabbits, i.v. 10 mg/kg/day, mean ± SD
Experimental: (§1) On Days 1 and 7, blood samples were collected prior to drug administration and at 0.5, 1, 2, 4, 8, 12, 18, and 24 hours post-dose to generate a pharmacokinetic profile. Other evaluated parameters included clinical observations, body weight, food consumption, hematology, clinical chemistry, gross pathology, and histopathological examination of selected tissues/organs.
Blood samples were analyzed via high performance liquid chromatography coupled with mass spectrometry (LCMS).

rabbits = test: toxicokinetic/nephrotoxicity study in the rabbit model, 30 days
Experimental: as §1

Structure (SMILES): C=C/C=C/C[C@@H](C)[C@@H](O)[C@H]1C(=O)N[C@@H](CC)C(=O)N(C)CC(=O)N(C)[C@@H](CC(C)C)C(=O)N[C@@H](C(C)C)C(=O)N(C)[C@@H](CC(C)C)C(=O)N[C@@H](C)C(=O)N[C@H](C)C(=O)N(C)[C@@H](CC(C)C)C(=O)N(C)[C@@H](CC(C)C)C(=O)N(C)[C@@H](C(C)C)C(=O)N1C [ISATX247]
- graft function after discontinuation of dosing ([1]; 100 days post-transplant (70 days post discontinuation of dosing), a number of animals): still had functioning grafts at 100 days post-transplant
- increase of survival time over Cyclosporine A ([1]; optimal dose of 1.75 mg/kg/day): approximately 3 fold
- toxicity compared to cyclosporine A as the dose level increased [2]: less toxic than cyclosporine A
- negative erosion scores compared to vehicle treatment group ([3]; 250 μg/mouse i.p. daily): higher negative erosion scores
- prevention of the development of joint erosions ([3]; 500 μg/mouse): significantly prevent the development of joint erosions
- negative erosion scores compared to vehicle treatment group ([3]; 500 μg/mouse i.p. daily): significantly higher
- synovial fluid counts ([4]; prevention protocol): significant reductions
- synovial histopathological scores compared to vehicle control ([4]; prevention protocol, after 28 days of therapy, s.c.): significant decrease
- potency compared to cyclosporine A in treatment and prevention of arthritis ([4]; rabbit, in vivo): equivalent or potentially more potent than cyclosporine A
- macroscopic arthritis score ([4]; treatment protocol): significant reduction
- synovial histopathological scores of animals with established arthritis compared to vehicle controls ([4]; treatment protocol, 14 days of treatment): Significant amelioration
- only toxicological effect noted in all species (rats, dogs, and primates): diarrhea/loose feces
- tolerability (rats, dogs, and primates): well-tolerated
- pharmacokinetic parameters in female rabbits compared with male rabbits ([5]; female rabbits, 10 mg/kg/day, exception: maximum concentration on Day 7): not significantly different
- Area under the curve ([5]; Day 1): 5659 ± 1309 ng·h/mL
- Cmax ([5]; Day 1): 1915 ± 149 ng/mL
- Area under the curve ([5]; Day 7): 5697 ± 1373 ng·h/mL
- Cmax ([5]; Day 7): 1959 ± 470 ng/mL
- examination of organs, female rabbits (rabbits; 15 mg/kg, 3 female rabbits that completed the study): No changes
- examination of organs, male rabbits (rabbits; 15 mg/kg, male rabbits): decrease in spermatogenesis
- Percent Change in Serum Creatinine Levels Over Baseline (rabbits; male rabbits, 10 mg/kg, Day 15): +1%
- Percent Change in Serum Creatinine Levels Over Baseline (rabbits; male rabbits, 10 mg/kg, Day 30): +10%
- Percent Change in Serum Creatinine Levels Over Baseline (rabbits; male rabbits, 15 mg/kg, Day 15): −19%
- Percent Change in Serum Creatinine Levels Over Baseline (rabbits; male rabbits, 15 mg/kg, Day 30): −11%
- hematological parameters (rabbits; rabbits): No significant changes
